# Test results: US7846722B2 (priority 2001, dated 2010)
# System: Neuro-2A cells
# Assay type: cell-based, mouse
# Conditions: not given
row,Compound,BoNT/A SNAP25197-cleavage product (uptake of BoNT/A) after differentiation reagent treatment
1,"CC1=C(/C=C/C(C)=C/C=C/C(C)=C/C(=O)O)C(C)(C)CCC1 [all trans retinoic acid, All Trans-Retinoic acid]",increase

# Molecular target: BoNT/A (Clostridium botulinum, UniProt P0DPI0)
# Conditions: cited from earlier work
# BoNT/A, sequence (P0DPI0 whole entry, looked up): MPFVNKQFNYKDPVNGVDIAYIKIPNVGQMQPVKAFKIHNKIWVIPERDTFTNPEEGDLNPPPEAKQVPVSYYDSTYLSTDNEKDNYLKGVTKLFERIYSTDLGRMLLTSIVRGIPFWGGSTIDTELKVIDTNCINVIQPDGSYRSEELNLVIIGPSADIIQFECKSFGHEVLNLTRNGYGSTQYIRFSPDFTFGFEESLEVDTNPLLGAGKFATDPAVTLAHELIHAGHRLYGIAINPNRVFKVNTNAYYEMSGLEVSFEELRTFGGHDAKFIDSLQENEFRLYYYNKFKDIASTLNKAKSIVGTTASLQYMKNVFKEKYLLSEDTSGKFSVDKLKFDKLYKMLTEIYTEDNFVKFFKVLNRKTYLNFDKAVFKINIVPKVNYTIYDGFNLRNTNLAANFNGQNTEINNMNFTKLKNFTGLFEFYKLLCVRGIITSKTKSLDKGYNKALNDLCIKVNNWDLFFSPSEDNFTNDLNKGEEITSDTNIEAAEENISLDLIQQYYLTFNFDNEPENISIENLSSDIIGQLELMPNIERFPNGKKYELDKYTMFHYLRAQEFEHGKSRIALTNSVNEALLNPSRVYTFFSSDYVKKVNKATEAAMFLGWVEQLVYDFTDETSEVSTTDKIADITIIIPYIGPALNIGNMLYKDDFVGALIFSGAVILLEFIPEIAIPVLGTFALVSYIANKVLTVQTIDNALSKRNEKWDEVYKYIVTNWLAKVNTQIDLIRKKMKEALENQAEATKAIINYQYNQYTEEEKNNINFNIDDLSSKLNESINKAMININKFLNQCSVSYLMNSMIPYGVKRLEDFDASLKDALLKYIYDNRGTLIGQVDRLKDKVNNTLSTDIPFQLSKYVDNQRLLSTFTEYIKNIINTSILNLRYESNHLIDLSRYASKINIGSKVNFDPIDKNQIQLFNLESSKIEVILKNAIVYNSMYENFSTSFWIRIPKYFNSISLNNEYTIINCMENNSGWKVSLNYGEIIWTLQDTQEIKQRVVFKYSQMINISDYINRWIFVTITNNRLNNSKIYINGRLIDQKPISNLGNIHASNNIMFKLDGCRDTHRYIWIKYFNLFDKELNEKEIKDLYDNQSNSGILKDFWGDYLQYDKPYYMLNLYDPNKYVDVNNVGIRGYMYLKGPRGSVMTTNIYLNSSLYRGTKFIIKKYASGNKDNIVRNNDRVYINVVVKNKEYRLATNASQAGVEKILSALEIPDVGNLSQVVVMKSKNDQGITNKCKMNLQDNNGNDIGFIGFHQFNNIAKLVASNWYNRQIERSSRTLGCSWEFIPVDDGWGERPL
row,Compound,Relative Rate
1,SNKTRIDEANBRATKML [Peptide Q11B],0.25
2,SNKTRIDEANQRABKML [Peptide T14B],1.20
3,SNKTRIDEANQRATKML [[1-17]],1.00
4,SNKTRIDEANQRATKXL [Peptide M16X],1.20
5,SNKTRIDEANQRBTKML [Peptide A13B],0.79
6,SNKTRIDEBNQRATKML [Peptide A9B],0.38
